In patent publication US7815945B2, “Medicament for the prevention and treatment of influenza” (priority 2005, dated 2010):

System: A549 cells
Test: Apoptotic caspase activation (Western blot for PARP cleavage)
Conditions: 48 h, extract 25 μg/ml and 50 μg/ml, staurosporine as positive control, FIG. 3

## CN[C@@H]1C[C@H]2O[C@@](C)([C@@H]1OC)n1c3ccccc3c3c4c(c5c6ccccc6n2c5c31)C(=O)NC4 [staurosporine]
  cleavage of the caspase substrate PARP (caspase activity): efficient cleavage of the caspase substrate
